{"source": "patent US20240358672A1", "about": "“APPLICATION OF GENISTEIN AND ITS PHOSPHATE ESTER DERIVATIVE AND PHARMACEUTICAL COMPOSITION COMPRISING THE SAME” (National Taiwan University, priority 2023, published 2024)", "key": {"CB1 receptor": {"target": "CB1 receptor (Homo sapiens, UniProt P21554)", "sequence (P21554 whole entry)": "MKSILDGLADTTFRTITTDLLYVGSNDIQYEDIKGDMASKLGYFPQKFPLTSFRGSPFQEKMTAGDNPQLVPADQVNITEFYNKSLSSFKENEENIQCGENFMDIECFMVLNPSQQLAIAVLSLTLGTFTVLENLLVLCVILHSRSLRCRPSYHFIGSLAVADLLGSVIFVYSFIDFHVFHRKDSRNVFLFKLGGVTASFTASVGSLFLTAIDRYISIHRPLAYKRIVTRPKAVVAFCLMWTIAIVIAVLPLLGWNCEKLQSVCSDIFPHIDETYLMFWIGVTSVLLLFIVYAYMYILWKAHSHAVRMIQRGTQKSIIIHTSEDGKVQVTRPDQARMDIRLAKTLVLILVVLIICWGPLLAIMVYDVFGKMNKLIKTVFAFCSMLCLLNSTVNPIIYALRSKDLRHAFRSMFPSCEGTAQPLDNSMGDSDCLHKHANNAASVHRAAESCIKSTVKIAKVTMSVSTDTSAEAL", "assay": "GTPase-Glo assay (in vitro GTPase assay)", "assay_type": "biochemical"}, "various organs": {"test_system": "various organs", "conditions": "in vivo"}, "[1]": {"assay": "In vivo fluorescence imaging (IVIS) biodistribution", "conditions": "inferred from BODIPY517/547-genistein distribution", "quoted_text": "High-magnification images of the green-boxed area are shown with the scale bar at 100 mm. […] Total cell lysates were prepared, and the expression of phosphorylated NF-κB and NF-κB was analyzed by western blot analysis. Immunoblots were quantified by ImageJ software (left panel). […] The in vivo fluorescence images were detected by the IVIS Spectrum at indicated time points. All mice were sacrificed at 48 hours, and major organs were collected and then fixed using formalin (left panel). Fluorescence images were quantified using the IVIS imaging system. […] Images of the brain, heart and lung, thoracic aorta, liver, spleen, kidney, intestine, colon, and blood were obtained from mice (n=5) (right panel). Fluorescence images were quantified using the ImageJ software (middle bottom)."}, "[2]": {"test_system": "WT hiPSC-ECs and CB1 CRISPRi hiPSC-ECs", "assay": "TNF-α challenge of WT and CB1 CRISPRi hiPSC-ECs", "conditions": "10 ng/ml TNF-α with 10 μM genistein"}, "mouse thoracic arteries": {"test_system": "mouse thoracic arteries", "assay": "Wire myograph of isolated mouse thoracic aortas", "assay_type": "in vivo, C57BL/6J mice", "protocol": "(§1) FIG. 7A: Isometric tension recordings of isolated mice thoracic aortas were performed using a wire myograph. Vascular concentration-dependent relaxation was induced by acetylcholine (ACh) in pre-constricted mouse thoracic arteries. […] FIG. 7C: Luminex analysis of inflammatory cytokines in plasma of C57BL/6J mice treated with vehicle control, Δ^9-THC, or Δ^9-THC plus genistein. […] FIG. 7E: Effect of Δ^9-THC and genistein on NF-κB phosphorylation in mouse thoracic artery. Total cell lysates were prepared, and the expressions of phosphor-NF-κB were analyzed by ELISA (upper left). Superoxide dismutase (SOD) activity of serum from mouse (bottom left). The effect of Δ^9-THC and genistein on NF-κB phosphorylation in mouse thoracic artery tissues (n=5). Total cell lysates were prepared, and the expressions of NF-κB, phosphorylated NF-κB, and β-actin were analyzed by western blot analysis (right panel). FIG. 7F: The levels reduced glutathione (GSH), Oxidized glutathione (GSSG), Total glutathione (T-GSH) and GSH/GSSG in the serum samples of mice were detected. Plasma isolated from C57BL/6J mice (n=5) treated with vehicle control, Δ^9-THC, genistein, or their combination every day for 30 days was analyzed by the glutathione colorimetric assay kit (BioVision, K261)."}, "C57BL/6J mice [3]": {"test_system": "C57BL/6J mice", "assay_type": "in vivo", "protocol": "as §1\nGenistein also rescued the oxidative stress protective-related gene expression (FIG. 7D). In addition, NF-κB phosphorylation and SOD expression in mouse serum were also attenuated with genistein (FIG. 7E). Δ^9-THC administration decreased circulating levels of the antioxidant glutathione, which was ameliorated with genistein cotreatment (FIG. 7F)."}, "hiPSC-ECs [4]": {"test_system": "hiPSC-ECs", "assay": "Western blot / immunofluorescence of p38 and NF-κB (p65) in hiPSC-ECs", "conditions": "48 hours"}, "C57BL/6J mice [5]": {"test_system": "C57BL/6J mice", "assay": "Neurobehavioral tetrad (Billy Martin tetrad) in mice", "protocol": "FIG. 13 illustrate the effect of genistein on the neurobehavioral effects of Δ^9-THC according to Example 12. C57BL/6J mice were exposed to (1) vehicle control (intraperitoneal [i.p.], and oral [p.o.], n=8), (2) Δ^9-THC at 20 mg/kg i.p. and p.o. vehicle (n=9), (3) genistein at 50 mg/kg p.o. and i.p. vehicle (n=8), and (4) combination of Δ^9-THC at 20 mg/kg i.p. and genistein at 50 mg/kg p.o. (n=9). […] Hypothermia was assessed by measuring body temperature using a rectal probe before and 60 min after treatment. The catalepsy test measures the time a mouse remained immobile on the bar. Analgesia was measured by placing mice on a hot plate and recording the time for the mouse to withdraw or lick.\nThese are described as the Billy Martin tetrad.\nTherefore, the neurological effects of Δ^9-THC and genistein co-administration were tested in C57BL/6J mice treated with vehicle, genistein, Δ^9-THC, or in combination. The tetrad effects were assessed using an activity chamber for mobility, a hot plate for analgesia, a rectal probe for hypothermia, and the bar test for […]."}, "hiPSC-ECs [6]": {"test_system": "hiPSC-ECs", "assay": "CellTiter-Glo cell viability, hiPSC-ECs", "conditions": "various concentrations, 24 or 48 hours"}, "hiPSC-ECs [7]": {"test_system": "hiPSC-ECs", "assay": "CellROX oxidative stress assay / ROS-Glo H2O2 assay in hiPSC-ECs", "conditions": "5 μM Δ^9-THC alone, 48 hours"}, "[8]": {"assay": "Plasma concentration by LC-MS analysis", "conditions": "Δ^9-THC 1 mg/kg"}, "[9]": {"test_system": "human endothelial cells (HUVECs and HCAECs)", "assay": "CellTiter-Glo cell viability, human endothelial cells", "conditions": "increasing concentrations of Δ^9-THC, 48 hours"}, "HUVECs": {"test_system": "HUVECs", "assay": "qPCR gene expression in HUVECs", "conditions": "5 μM Δ^9-THC, 48 hours, normalized to GAPDH"}, "hiPSC-ECs [10]": {"test_system": "hiPSC-ECs", "assay": "Wash-out experiments, inflammation-related gene expression in hiPSC-ECs", "conditions": "5 μM Δ^9-THC 48 hours, then fresh medium"}, "hiPSC-ECs [11]": {"test_system": "hiPSC-ECs", "assay": "Monocyte (U937) adhesion assay on hiPSC-ECs", "conditions": "5 μM Δ^9-THC alone, 48 hours"}, "[12]": {"conditions": "10 μM genistein with 5 μM Δ^9-THC"}}, "note": "Where two headings read alike, the source gives them in different places.", "data": [{"smiles": "O=c1c(-c2ccc(O)cc2)coc2cc(O)cc(O)c12", "note": "[genistein]", "values": [{"measurement": "function at CB1 in in vitro GTPase assay", "setting": "CB1 receptor", "value": "neutral antagonist"}, {"measurement": "GTP turnover compared with Apo", "setting": "CB1 receptor; GTPase-Glo assay", "value": "same GTP turnover as Apo"}, {"measurement": "toxicity to various organs", "setting": "various organs", "value": "did not exhibit any toxicity to various organs"}, {"measurement": "blood-brain barrier (BBB) penetration", "setting": "[1]", "value": "poor blood-brain barrier (BBB) penetration"}, {"measurement": "expression of ILIA", "setting": "[2]; CB1 CRISPRi hiPSC-ECs", "value": "increased significantly"}, {"measurement": "TNF-α-increased expression of CXCR8", "setting": "[2]; WT hiPSC-ECs", "value": "attenuated"}, {"measurement": "TNF-α-increased expression of IL6", "setting": "[2]; WT hiPSC-ECs", "value": "attenuated"}, {"measurement": "expression of ILIA", "setting": "[2]; WT hiPSC-ECs", "value": "decreased"}, {"measurement": "TNF-α-increased expression of SOD1", "setting": "[2]; WT or CB1 CRISPRi hiPSC-ECs", "value": "not attenuated"}, {"measurement": "Δ^9-THC-induced endothelial dysfunction", "setting": "mouse thoracic arteries; Δ^9-THC 1 mg/kg plus genistein 50 mg/kg", "value": "mitigated the effect"}, {"measurement": "Δ^9-THC-induced mRNA expressions of inflammation-related genes in mouse thoracic artery tissues", "setting": "C57BL/6J mice [3]; Δ^9-THC 1 mg/kg plus genistein 50 mg/kg or rimonabant 3 mg/kg", "value": "ameliorated"}, {"measurement": "NF-κB phosphorylation in mouse thoracic artery", "setting": "C57BL/6J mice [3]; Δ^9-THC plus genistein", "value": "attenuated"}, {"measurement": "SOD expression in mouse serum", "setting": "C57BL/6J mice [3]; Δ^9-THC plus genistein", "value": "attenuated"}, {"measurement": "oxidative stress protective-related gene expression in thoracic artery tissues", "setting": "C57BL/6J mice [3]; Δ^9-THC plus genistein", "value": "rescued"}, {"measurement": "plasma IL-6, IL-3 and IL-10 (Luminex)", "setting": "C57BL/6J mice [3]; Δ^9-THC plus genistein cotreatment", "value": "significantly reduced"}, {"measurement": "Δ^9-THC-decreased circulating glutathione", "setting": "C57BL/6J mice [3]; Δ^9-THC plus genistein cotreatment, every day for 30 days", "value": "ameliorated"}, {"measurement": "Δ^9-THC-induced NF-κB phosphorylation", "setting": "hiPSC-ECs [4]; [12]", "value": "attenuated NF-κB phosphorylation"}, {"measurement": "Δ^9-THC-induced p38 phosphorylation", "setting": "hiPSC-ECs [4]; [12]", "value": "decreased"}, {"measurement": "tetrad effects", "setting": "C57BL/6J mice [5]; genistein 50 mg/kg p.o. alone", "value": "did not affect tetrad effects"}, {"measurement": "Δ^9-THC neurobehavioral effects", "setting": "C57BL/6J mice [5]; Δ^9-THC 20 mg/kg i.p. and genistein 50 mg/kg p.o.", "value": "could not attenuate"}]}, {"smiles": "CCCCCc1cc(O)c2c(c1)OC(C)(C)[C@@H]1CCC(C)=C[C@@H]21", "note": "[Δ^9-THC, Δ^9-tetrahydrocannabinol]", "values": [{"measurement": "cytotoxicity (cell viability)", "setting": "hiPSC-ECs [6]", "value": "induced cytotoxicity"}, {"measurement": "cellular oxidative stress (CellROX)", "setting": "hiPSC-ECs [7]", "value": "induced cellular oxidative stress"}, {"measurement": "plasma concentration", "setting": "[8]", "value": "~100", "unit": "ng/mL"}, {"measurement": "endothelial function (ACh-induced relaxation)", "setting": "mouse thoracic arteries; Δ^9-THC 1 mg/kg", "value": "induced endothelial dysfunction"}, {"measurement": "cytotoxicity (cell viability)", "setting": "[9]", "value": "induced cytotoxicity"}, {"measurement": "plasma IL-6, IL-3 and IL-10 (Luminex)", "setting": "C57BL/6J mice [3]; Δ^9-THC alone", "value": "elevated"}, {"measurement": "circulating levels of the antioxidant glutathione", "setting": "C57BL/6J mice [3]; Δ^9-THC alone, every day for 30 days", "value": "decreased"}, {"measurement": "p65 (NF-κB) phosphorylation", "setting": "hiPSC-ECs [4]; 5 μM Δ^9-THC alone", "value": "caused p65 phosphorylation"}, {"measurement": "phosphorylation of p38", "setting": "hiPSC-ECs [4]; 5 μM Δ^9-THC alone", "value": "increased phosphorylation of p38"}, {"measurement": "nuclear translocation of NF-κB (p65)", "setting": "hiPSC-ECs [4]; 5 μM Δ^9-THC", "value": "induced"}, {"measurement": "antioxidant-related gene expression", "setting": "HUVECs", "value": "reduced the antioxidant-related gene expression"}, {"measurement": "expression of inflammation-related genes", "setting": "HUVECs", "value": "induced the expression of inflammation-related genes"}, {"measurement": "analgesia (hot plate)", "setting": "C57BL/6J mice [5]; Δ^9-THC 20 mg/kg i.p.", "value": "analgesia"}, {"measurement": "hypothermia (rectal probe)", "setting": "C57BL/6J mice [5]; Δ^9-THC 20 mg/kg i.p.", "value": "hypothermia"}, {"measurement": "mobility (activity chamber)", "setting": "C57BL/6J mice [5]; Δ^9-THC 20 mg/kg i.p.", "value": "decreased mobility"}, {"measurement": "sedation (bar test)", "setting": "C57BL/6J mice [5]; Δ^9-THC 20 mg/kg i.p.", "value": "sedation"}, {"measurement": "time the induced expression of proinflammatory cytokines and chemokines was sustained (recovery time)", "setting": "hiPSC-ECs [10]", "value": "8 to 10", "unit": "days"}, {"measurement": "monocyte adhesion to hiPSC-ECs", "setting": "hiPSC-ECs [11]", "value": "increased adhesion"}]}]}
